Test results published in the supplement of paper PMC10883282.
± gives the standard deviation of the averaged measurements.

Tests used:
Assay in all cases: relative viability vs DMSO control (72 h) (fraction); higher = more viable cells
G401 = system: G401
Outline: (§1)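 ATPLite readings, expressed as percent growth and averaged over up to triplicate wells, provided relative viability. Before reading, sarcoma cell lines seeded in 384-well plates to reach 80–90% confluence received 2.5 µl of serially diluted compound after 24 h, from source plates of 10 mM to 0.0002 mM. Plates were held 72 h at 37 °C, 5% CO2, with 0.1% DMSO as vehicle and a 5 µM positive control. The data were rescaled to 1 for full and 0 for none.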

HT1080 = system: HT1080
Outline: as §1

KHOS-NP = system: KHOS-NP
Outline: as §1

MES-SA = system: MES-SA
Outline: as §1

RD-ES = system: RD-ES
Outline: as §1

RD = system: RD
Outline: as §1

SK-ES-1 = system: SK-ES-1
Outline: as §1

SK-LMS-1 = system: SK-LMS-1
Outline: as §1

SW1353 = system: SW1353
Outline: as §1

SW684 = system: SW684
Outline: as §1

SW872 = system: SW872
Outline: as §1

VA-ES-BJ = system: VA-ES-BJ
Outline: as §1

For C#Cc1cccc(Nc2ncnc3cc4c(cc23)OCCOCCOCCO4)c1 [Icotinib], the relative viability (G401; 0.00017 µM) was 1.04 ± 0.026, the relative viability (G401; 0.00051 µM) was 1.05 ± 0.014 and the relative viability (G401; 0.00152 µM) was 1.04 ± 0.015. For the same compound, the relative viability (G401; 0.00457 µM) was 1.06 ± 0.024, the relative viability (G401; 0.01372 µM) was 1.05 ± 0.02 and the relative viability (G401; 0.04115 µM) was 1.05 ± 0.04. It also gave a relative viability (G401; 0.1235 µM) of 1.02 ± 0.012, a relative viability (G401; 0.3704 µM) of 1.04 ± 0.03 and a relative viability (G401; 1.111 µM) of 1.06 ± 0.019. The relative viability (G401; 3.333 µM) was 1.03 ± 0.028, the relative viability (G401; 10 µM) was 1.02 ± 0.046 and the relative viability (HT1080; 0.00017 µM) was 1.08 ± 0.031. For the same compound, the relative viability (HT1080; 0.00051 µM) was 1.11 ± 0.014, the relative viability (HT1080; 0.00152 µM) was 1.09 ± 0.022 and the relative viability (HT1080; 0.00457 µM) was 1.1 ± 0.022. It also gave a relative viability (HT1080; 0.01372 µM) of 1.11 ± 0.064, a relative viability (HT1080; 0.04115 µM) of 1.08 ± 0.037 and a relative viability (HT1080; 0.1235 µM) of 1.1 ± 0.029. It also gave a relative viability (HT1080; 0.3704 µM) of 1.11 ± 0.014, a relative viability (HT1080; 1.111 µM) of 1.069 ± 0.0085 and a relative viability (HT1080; 3.333 µM) of 1.08 ± 0.012. For the same compound, the relative viability (HT1080; 10 µM) was 1.06 ± 0.014, the relative viability (KHOS-NP; 0.00017 µM) was 1.083 ± 0.0088 and the relative viability (KHOS-NP; 0.00051 µM) was 1.09 ± 0.018. It also gave a relative viability (KHOS-NP; 0.00152 µM) of 1.08 ± 0.017, a relative viability (KHOS-NP; 0.00457 µM) of 1.09 ± 0.019 and a relative viability (KHOS-NP; 0.01372 µM) of 1.09 ± 0.013. It also gave a relative viability (KHOS-NP; 0.04115 µM) of 1.09 ± 0.018, a relative viability (KHOS-NP; 0.1235 µM) of 1.08 ± 0.0075 and a relative viability (KHOS-NP; 0.3704 µM) of 1.09 ± 0.015. It also gave a relative viability (KHOS-NP; 1.111 µM) of 1.096 ± 0.0079, a relative viability (KHOS-NP; 3.333 µM) of 1.08 ± 0.011 and a relative viability (KHOS-NP; 10 µM) of 1.07 ± 0.025. The relative viability (MES-SA; 0.00017 µM) was 0.972 ± 0.021, the relative viability (MES-SA; 0.00051 µM) was 0.945 ± 0.032 and the relative viability (MES-SA; 0.00152 µM) was 0.958 ± 0.014. The relative viability (MES-SA; 0.00457 µM) was 0.937 ± 0.05, the relative viability (MES-SA; 0.01372 µM) was 0.936 ± 0.02 and the relative viability (MES-SA; 0.04115 µM) was 0.952 ± 0.033. It also gave a relative viability (MES-SA; 0.1235 µM) of 0.952 ± 0.024, a relative viability (MES-SA; 0.3704 µM) of 0.922 ± 0.024 and a relative viability (MES-SA; 1.111 µM) of 0.912 ± 0.027. For the same compound, the relative viability (MES-SA; 3.333 µM) was 0.869 ± 0.036, the relative viability (MES-SA; 10 µM) was 0.8 ± 0.038 and the relative viability (RD-ES; 0.00017 µM) was 0.983 ± 0.02. The relative viability (RD-ES; 0.00051 µM) was 0.998 ± 0.02, the relative viability (RD-ES; 0.00152 µM) was 0.989 ± 0.024 and the relative viability (RD-ES; 0.00457 µM) was 1.01 ± 0.022. The relative viability (RD-ES; 0.01372 µM) was 0.991 ± 0.052, the relative viability (RD-ES; 0.04115 µM) was 0.982 ± 0.042 and the relative viability (RD-ES; 0.1235 µM) was 0.976 ± 0.033. The relative viability (RD-ES; 0.3704 µM) was 0.991 ± 0.025, the relative viability (RD-ES; 1.111 µM) was 0.973 ± 0.012 and the relative viability (RD-ES; 3.333 µM) was 0.977 ± 0.02. The relative viability (RD-ES; 10 µM) was 0.959 ± 0.028, the relative viability (RD; 0.00017 µM) was 1.09 ± 0.021 and the relative viability (RD; 0.00051 µM) was 1.1 ± 0.055. For the same compound, the relative viability (RD; 0.00152 µM) was 1.13 ± 0.027, the relative viability (RD; 0.00457 µM) was 1.124 ± 0.0066 and the relative viability (RD; 0.01372 µM) was 1.15 ± 0.036. It also gave a relative viability (RD; 0.04115 µM) of 1.08 ± 0.062, a relative viability (RD; 0.1235 µM) of 1.12 ± 0.029 and a relative viability (RD; 0.3704 µM) of 1.15 ± 0.035. For the same compound, the relative viability (RD; 1.111 µM) was 1.1 ± 0.035, the relative viability (RD; 3.333 µM) was 1.15 ± 0.028 and the relative viability (RD; 10 µM) was 1.14 ± 0.022. It also gave a relative viability (SK-ES-1; 0.00017 µM) of 1.03 ± 0.024, a relative viability (SK-ES-1; 0.00051 µM) of 1.06 ± 0.028 and a relative viability (SK-ES-1; 0.00152 µM) of 1.06 ± 0.024. It also gave a relative viability (SK-ES-1; 0.00457 µM) of 1.01 ± 0.077, a relative viability (SK-ES-1; 0.01372 µM) of 1.073 ± 0.0071 and a relative viability (SK-ES-1; 0.04115 µM) of 1.08 ± 0.026. It also gave a relative viability (SK-ES-1; 0.1235 µM) of 1.068 ± 0.0031, a relative viability (SK-ES-1; 0.3704 µM) of 1.07 ± 0.018 and a relative viability (SK-ES-1; 1.111 µM) of 0.998 ± 0.035. For the same compound, the relative viability (SK-ES-1; 3.333 µM) was 1.01 ± 0.018, the relative viability (SK-ES-1; 10 µM) was 0.934 ± 0.032 and the relative viability (SK-LMS-1; 0.00017 µM) was 1.08 ± 0.014. For the same compound, the relative viability (SK-LMS-1; 0.00051 µM) was 1.05 ± 0.044, the relative viability (SK-LMS-1; 0.00152 µM) was 1.07 ± 0.012 and the relative viability (SK-LMS-1; 0.00457 µM) was 1.07 ± 0.032. It also gave a relative viability (SK-LMS-1; 0.01372 µM) of 1.07 ± 0.024, a relative viability (SK-LMS-1; 0.04115 µM) of 1.06 ± 0.075 and a relative viability (SK-LMS-1; 0.1235 µM) of 1.04 ± 0.049. For the same compound, the relative viability (SK-LMS-1; 0.3704 µM) was 1.09 ± 0.081, the relative viability (SK-LMS-1; 1.111 µM) was 1.05 ± 0.051 and the relative viability (SK-LMS-1; 3.333 µM) was 1.033 ± 0.0072. It also gave a relative viability (SK-LMS-1; 10 µM) of 0.998 ± 0.076, a relative viability (SW1353; 0.00017 µM) of 1.06 ± 0.025 and a relative viability (SW1353; 0.00051 µM) of 1.04 ± 0.016. It also gave a relative viability (SW1353; 0.00152 µM) of 1.03 ± 0.019, a relative viability (SW1353; 0.00457 µM) of 1.07 ± 0.044 and a relative viability (SW1353; 0.01372 µM) of 1.045 ± 0.0071. The relative viability (SW1353; 0.04115 µM) was 1.01 ± 0.043, the relative viability (SW1353; 0.1235 µM) was 1.01 ± 0.038 and the relative viability (SW1353; 0.3704 µM) was 0.976 ± 0.022. For the same compound, the relative viability (SW1353; 1.111 µM) was 0.952 ± 0.015, the relative viability (SW1353; 3.333 µM) was 0.914 ± 0.031 and the relative viability (SW1353; 10 µM) was 0.847 ± 0.033. It also gave a relative viability (SW684; 0.00017 µM) of 1.172 ± 0.0059, a relative viability (SW684; 0.00051 µM) of 1.18 ± 0.053 and a relative viability (SW684; 0.00152 µM) of 1.2 ± 0.04. For the same compound, the relative viability (SW684; 0.00457 µM) was 1.19 ± 0.052, the relative viability (SW684; 0.01372 µM) was 1.2 ± 0.064 and the relative viability (SW684; 0.04115 µM) was 1.18 ± 0.031. The relative viability (SW684; 0.1235 µM) was 1.18 ± 0.091, the relative viability (SW684; 0.3704 µM) was 1.18 ± 0.066 and the relative viability (SW684; 1.111 µM) was 1.17 ± 0.043. It also gave a relative viability (SW684; 3.333 µM) of 1.16 ± 0.026, a relative viability (SW684; 10 µM) of 1.13 ± 0.05 and a relative viability (SW872; 0.00017 µM) of 1.14 ± 0.058. The relative viability (SW872; 0.00051 µM) was 1.14 ± 0.041, the relative viability (SW872; 0.00152 µM) was 1.11 ± 0.046 and the relative viability (SW872; 0.00457 µM) was 1.108 ± 0.011. It also gave a relative viability (SW872; 0.01372 µM) of 1.11 ± 0.059, a relative viability (SW872; 0.04115 µM) of 1.09 ± 0.059 and a relative viability (SW872; 0.1235 µM) of 1.08 ± 0.067. For the same compound, the relative viability (SW872; 0.3704 µM) was 1.07 ± 0.047, the relative viability (SW872; 1.111 µM) was 1.06 ± 0.041 and the relative viability (SW872; 3.333 µM) was 1.04 ± 0.06. For the same compound, the relative viability (SW872; 10 µM) was 1.03 ± 0.064, the relative viability (VA-ES-BJ; 0.00017 µM) was 1.09 ± 0.038 and the relative viability (VA-ES-BJ; 0.00051 µM) was 1.1 ± 0.076. The relative viability (VA-ES-BJ; 0.00152 µM) was 1.1 ± 0.075, the relative viability (VA-ES-BJ; 0.00457 µM) was 1.06 ± 0.03 and the relative viability (VA-ES-BJ; 0.01372 µM) was 1.08 ± 0.07. The relative viability (VA-ES-BJ; 0.04115 µM) was 1.07 ± 0.011, the relative viability (VA-ES-BJ; 0.1235 µM) was 1.08 ± 0.047 and the relative viability (VA-ES-BJ; 0.3704 µM) was 1.08 ± 0.038. It also gave a relative viability (VA-ES-BJ; 1.111 µM) of 1.05 ± 0.0098, a relative viability (VA-ES-BJ; 3.333 µM) of 1.04 ± 0.025 and a relative viability (VA-ES-BJ; 10 µM) of 1.01 ± 0.036.
